Test results as given in PMC9737184, “In Vitro Study of Cytotoxic Mechanisms of Alkylphospholipids and Alkyltriazoles in Acute Lymphoblastic Leukemia Models” (Molecules, 2022).

Experiments:
PBMCs = assay: Annexin V-FITC/PI cytotoxicity on healthy control cells; assay type: cell-based, human; conditions: for cytotoxicity to PBMCs compared with vinblastine: 24 h of exposure at different concentrations; for sensitivity of PBMCs compared with the tumor lineages: healthy control cells, 24 h
Source text: Blood was collected using EDTA Vacuum Blood Collection Tubes. Peripheral blood mononuclear cells were isolated from three normal healthy individuals after they provided informed consent and after prior approval by the local Ethics Committee of University of Mogi das Cruzes (ethical appreciation number 72986617.3.0000.5497, and approval number 2.236.397). The fraction of mononuclear cells was separated from the blood by centrifugation with Ficoll-Histopaque-1077 (density 1.077 g/mL, Sigma-Aldrich, Burlington, MA, USA) at 400× g for 30 min. Mononuclear cells were maintained in 100 U/mL penicillin and […] streptomycin in an incubator with a humidified atmosphere at 37 °C and 5% CO2.
Leukemia or PBMC cells (2 × 10^5 cells/mL) were incubated for 24 h in both the absence and presence of compounds. PBMCs were also treated with vinblastine (Sigma-Aldrich, Burlington, MA, USA) for 24 h as the positive control. Then, the cells were centrifuged and resuspended in binding buffer (0.01 M HEPES, pH 7.4, containing 0.14 M NaCl, and 2.5 mM CaCl2) and incubated at room temperature with annexin V-FITC (BD Biosciences, San Jose, CA, USA) and 5 µg/mL PI (Sigma-Aldrich, Burlington, MA, USA) for 20 min. Sample analysis was performed using an Accuri C6 flow cytometer (BD Biosciences, San Jose, CA, USA) with the acquisition value of 10,000 events. […]
Figure S3. Concentration-response curve of cytotoxicity of compounds C9, C21 and vinblastine on PBMCs. PBMCs cells were cultured (2x10^5 cells/mL) on 96-well microplates. The cells were treated with compounds C9 ([…]) and C21 (≤), and vinblastine ([…]) (Sigma-Aldrich, Germany) for 24 h. After, the cells were labeled with Annexin V-FITC and 5 μg/mL PI. The results were expressed as percent-age. The data are the mean ± SEM of 3 experiments performed in duplicate.

cathepsin L [1] = biological target: T1, cathepsin L (Homo sapiens, UniProt P07711); assay: Cathepsin L inhibition, Z-FR-AMC fluorogenic assay (IC50); assay type: biochemical; conditions: Z-FR-AMC 5 µM, pH 5.5, 37 °C
Protocol: (§1) Cathepsin L was assayed in a reaction buffer of 100 mM sodium acetate, containing 100 mM NaCl, 5 mM EDTA and 20% glycerol at pH 5.5. Cathepsin B was assayed in the same buffer supplemented with 0.01% Triton X-100. The enzymes were pre-incubated in the presence of 3 mM DTT for 5 min at 37 °C in a 1 mL final volume with constant stirring. The enzyme activities were monitored using the fluorogenic probe Z-FR-AMC (50 µM and 5 µM for cathepsin B and L, respectively), and the fluorescence was monitored by spectrofluorometry using the fluorometer RF6000 (Shimadzu, Tokyo, Japan) set to λEx = 360 nm and λEm = 480 nm. […] The data were analyzed by Grafit 5.0.13 software using Equation (1). (1) y=100%/1+(x/IC50)^S

[2] = test system: PARP-1 cleavage in CCRF-CEM cells; assay: Cleaved PARP by flow cytometry; assay type: cell-based, human; conditions: 12 h of treatment, EC50 of the compounds
Protocol: (§2) Jurkat and CCRF-CEM cells (2 × 10^5 cells/mL) were treated with C9 and C21 compounds for 12 h. Then, the cells were centrifuged, washed, fixed with 2% paraformaldehyde in PBS for 30 min and permeabilized with 0.01% saponin in PBS for 15 min at room temperature. Afterwards, the cells were incubated for 1 h at 37 °C with anti-cleaved-caspase 3-FITC monoclonal antibodies (Cell Signaling, Danvers, MA, USA) or mouse anti-cleaved PARP-PE/CF594 (Asp^214) antibodies (BD Biosciences, San Jose CA, USA). After incubation, the fluorescence was analyzed using an Accuri C6 flow cytometer (BD Biosciences, San Jose, CA, USA). A total of 10,000 events were acquired per sample.

[3] = test system: PARP-1 cleavage in Jurkat cells; assay: Cleaved PARP by flow cytometry; assay type: cell-based, human; conditions: 12 h of treatment, EC50 of the compounds
Protocol: as §2

cathepsin B [4] = biological target: T2, cathepsin B (Homo sapiens, UniProt P07858); assay: Cathepsin B inhibition, Z-FR-AMC fluorogenic assay (IC50); assay type: biochemical; conditions: Z-FR-AMC 50 µM, pH 5.5, 37 °C
Protocol: as §1

cathepsin B [5] = biological target: T2, cathepsin B; assay: Cathepsin B inhibition kinetics and mechanism; assay type: biochemical; conditions: Cat B; for Mec. (mechanism of inhibition): SLNC = simple linear non-competitive, SLC = simple linear competitive
Protocol: (§3) For every kinetic measurement, the compounds were pre-incubated with each enzyme for 10 min before adding the substrate. All kinetic assays were carried out in duplicate. Inhibition constants were determined using different equations, depending on the inhibition mechanism. The assumed KM values of cathepsin B and cathepsin L for Z-FR-AMC were 23.4 µM and 2 µM, respectively, as previously described. The data of the activity rate and substrate concentration generated rectangular hyperbolic profiles that were linearized using the Lineweaver–Burk/double reciprocal plot. The replot profiles of the slope vs inhibitor and intercept vs inhibitor provided the Ki and αKi parameters, respectively.

[6] = test system: cleaved caspase-3 in CCRF-CEM cells; assay: Cleaved caspase-3 by flow cytometry; assay type: cell-based, human; conditions: 12 h of treatment, EC50 of the compounds
Protocol: as §2

[7] = test system: cleaved caspase-3 in Jurkat cells; assay: Cleaved caspase-3 by flow cytometry; assay type: cell-based, human; conditions: 12 h of treatment, EC50 of the compounds
Protocol: as §2

cathepsin L [8] = biological target: T1, cathepsin L; assay: Cathepsin L inhibition kinetics and mechanism; assay type: biochemical; conditions: Cat L; for Mec. (mechanism of inhibition): SLNC = simple linear non-competitive, SLC = simple linear competitive
Protocol: as §3

[9] = test system: Jurkat and CCRF-CEM lineages; assay: Annexin V-FITC/PI cytotoxicity, EC50 span over ALL lineages (discussion); assay type: cell-based; conditions: Homo sapiens
Protocol: (§4) Figure 2 Effects of the alkyltriazole compounds C9 and C21 on the viability of different myeloblastic and lymphoblastic leukemia lineages. Lineages cells at 2 × 10^5 cells/mL were used. Cells were exposed to concentrations ranging from 0 to 150 µM for 24 h, and cell viability was assessed by annexin V-FITC/PI staining and flow cytometric analysis. (A) Chemical structure of C9, with a hydroxyl group and an iodine atom as substituents.
(§5) Human leukemia cell lines (Kasumi-1, K-562, ARH-77, Jurkat and CCRF-CEM, see Table S2) were purchased from American Type Culture Collection-ATCC (Manassas, VA, USA). The cells were maintained in RPMI 1640 (Sigma-Aldrich, Burlington, MA, USA) culture medium, supplemented with 10% fetal bovine serum, 100 U/mL penicillin (Sigma-Aldrich, Burlington, MA, USA) and 100 µg/mL streptomycin (Sigma-Aldrich, Burlington, MA, USA). Cells were cultured in a humidified atmosphere at 37 °C and 5% CO2.
Leukemia or PBMC cells (2 × 10^5 cells/mL) were incubated for 24 h in both the absence and presence of compounds. PBMCs were also treated with vinblastine (Sigma-Aldrich, Burlington, MA, USA) for 24 h as the positive control. […]

[10] = test system: Kasumi-1 (acute myeloblastic leukemia); assay: Annexin V-FITC/PI cytotoxicity, concentration-response; assay type: cell-based; conditions: Homo sapiens, Kasumi cells, 24 h
Protocol: as §4, §5
(§6) Leukemia or PBMC cells (2 × 10^5 cells/mL) were incubated for 24 h in both the absence and presence of compounds. PBMCs were also treated with vinblastine (Sigma-Aldrich, Burlington, MA, USA) for 24 h as the positive control. Then, the cells were centrifuged and resuspended in binding buffer (0.01 M HEPES, pH 7.4, containing 0.14 M NaCl, and 2.5 mM CaCl2) and incubated at room temperature with annexin V-FITC (BD Biosciences, San Jose, CA, USA) and 5 µg/mL PI (Sigma-Aldrich, Burlington, MA, USA) for 20 min. Sample analysis was performed using an Accuri C6 flow cytometer (BD Biosciences, San Jose, CA, USA) with the acquisition value of 10,000 events.

[11] = test system: CCRF-CEM (acute lymphoblastic leukemia); assay: as above; assay type: cell-based; conditions: Homo sapiens, CCRF-CEM cells, 24 h
Protocol: as §4, §5, §6

[12] = test system: ARH-77 (plasma cell leukemia); assay: as above; assay type: cell-based; conditions: Homo sapiens, ARH-77 cells, 24 h
Protocol: as §4, §5, §6

[13] = test system: Jurkat (acute lymphoblastic leukemia); assay: as above; assay type: cell-based; conditions: Homo sapiens, Jurkat cells, 24 h
Protocol: as §4, §5, §6

[14] = test system: K562 (chronic myeloblastic leukemia); assay: as above; assay type: cell-based; conditions: Homo sapiens, K562 cells, 24 h
Protocol: as §4, §5, §6

CCRF-CEM cells = assay: Cytochrome c release, confocal colocalization; assay type: cell-based, human; conditions: CCRF-CEM lineage after treatment; control cells 25–35%
Protocol: The release of cytochrome c from the mitochondria was estimated by using double-labeled confocal cell imaging with MitoTracker Green (Invitrogen, Waltham, MA, USA) and a cytochrome c antibody. Jurkat and CCRF-CEM cells (2 × 10^5 cells/mL) were incubated with C9 and C21 compounds for 12 h. Then, cells were incubated with 100 nM MitoTracker Green (Invitrogen, Waltham, MA, USA) for 30 min at 37 °C. Following this, cells were washed with PBS, fixed with 2% paraformaldehyde in PBS for 30 min and permeabilized with 0.01% saponin in PBS for 15 min. Then, the cells were incubated with a monoclonal rabbit antibody against human cytochrome c at 1:100 dilutions (0.5 μg/mL, Cell Signaling, Danvers, MA, USA) for 2 h at room temperature. […] Alexa Fluor 647 was excited using a HeNe laser (λEx = 633 nm) and its emissions were detected at 650–700 nm. MitoTracker Green was excited using an argon laser (λEx = 488 nm) and its emissions were detected at 500–550 nm. DAPI was excited with a diode laser (λEx = 405 nm) and its emissions were detected at […]. […]
The quantitative evaluation of colocalization was performed by using the percentage of colocalized between channels, which correspond to the pixels with red fluorescence and green or blue fluorescence. […] The colocalization coefficient was calculated using the Imaris software.

[15] = test system: T-cell lymphomas lineages; design: method as in PMID 24225136; conditions: cited from earlier work

T1 sequence (P07711 114-333): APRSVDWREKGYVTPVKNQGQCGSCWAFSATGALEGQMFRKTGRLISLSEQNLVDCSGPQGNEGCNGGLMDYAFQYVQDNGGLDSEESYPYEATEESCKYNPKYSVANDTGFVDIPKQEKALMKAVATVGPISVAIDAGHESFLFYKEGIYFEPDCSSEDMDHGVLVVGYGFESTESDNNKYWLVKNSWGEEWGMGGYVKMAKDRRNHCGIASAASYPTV

With `OCCCc1cn(CCCCCCCCCCCCI)nn1` [Compound 9] the “cytotoxicity to PBMCs compared with vinblastine” value (PBMCs) was “less cytotoxic than vinblastine”, the “sensitivity of PBMCs compared with the tumor lineages” value (PBMCs) was “significantly less sensitive” and the IC50 (cathepsin L [1]) was 1.3 ± 0.1 µM. The PARP-1 cleavage [2] was “did not occur”, the PARP-1 cleavage [3] was “observed” and the IC50 (cathepsin B [4]) was 3.5 ± 0.2 µM. For the same molecule, the Ki (cathepsin B [5]) was 15.3 ± 0.6 µM, the “Mec. (mechanism of inhibition)” value (cathepsin B [5]; listed as C9) was “simple linear competitive inhibition and SLC” and the “cleaved caspase-3” value [6] was “less intense”. The “cleaved caspase-3” value [7] was “increase”, the Ki (cathepsin L [8]) was 3.56 ± 0.26 µM and the αKi (cathepsin L [8]) was 3.66 ± 0.07 µM. For the same molecule, the “Mec. (mechanism of inhibition)” value (cathepsin L [8]; listed as C9) was “simple linear noncompetitive inhibition and SLNC”, the α (cathepsin L [8]; listed as C9) was 1 and the EC50 ([9]; in Jurkat and CCRF-CEM lineages) was 40 to 70 µM. It also gave an EC50 [10] greater than 140 µM, an EC50 [11] of 40 ± 1.2 µM and an EC50 [12] of 71 ± 0.8 µM. For the same molecule, the EC50 [13] was 63 ± 1 µM, the EC50 [14] was greater than 140 µM and the “colocalization coefficient between the green and red channel” value (CCRF-CEM cells) was 30–40%.
With `CC(=O)OCCCc1cn(CCCCCCCCCCCCOS(C)(=O)=O)nn1` [Compound 21] the “cytotoxicity to PBMCs compared with vinblastine” value (PBMCs) was “less cytotoxic than vinblastine”, the “sensitivity of PBMCs compared with the tumor lineages” value (PBMCs) was “significantly less sensitive” and the IC50 (cathepsin L [1]) was 1.6 ± 0.1 µM. For the same molecule, the PARP-1 cleavage [2] was “did not occur”, the PARP-1 cleavage [3] was “observed” and the IC50 (cathepsin B [4]) was 3.9 ± 0.2 µM. The Ki (cathepsin B [5]) was 27.4 ± 1.2 µM, the α (cathepsin B [5]) was 1.6 and the αKi (cathepsin B [5]) was 43.9 ± 1.7 µM. For the same molecule, the “Mec. (mechanism of inhibition)” value (cathepsin B [5]; listed as C21) was “simple linear noncompetitive inhibition and SLNC”, the “cleaved caspase-3” value [6] was “less intense” and the “cleaved caspase-3” value [7] was “increase”. The Ki (cathepsin L [8]) was 9.72 ± 1.23 µM, the αKi (cathepsin L [8]) was 10.47 ± 1.17 µM and the “Mec. (mechanism of inhibition)” value (cathepsin L [8]; listed as C21) was “simple linear noncompetitive inhibition and SLNC”. For the same molecule, the α (cathepsin L [8]; listed as C21) was 1, the EC50 [10] was greater than 140 µM and the EC50 [11] was 60 ± 2 µM. It also gave an EC50 [12] of 96 ± 1 µM, an EC50 [13] of 77 ± 1.5 µM and an EC50 [14] greater than 140 µM. The “colocalization coefficient between the green and red channel” value (CCRF-CEM cells) was 30–40%.
In the case of `CCCCCCCCCCCCCCCCOP(=O)([O-])OCC[N+](C)(C)C` [Compound 1, hexadecyl 2-(trimethylazaniumyl)ethyl phosphate, reference compound], the IC50 (cathepsin L [1]) is reported as 10.5 ± 0.2 µM, the IC50 (cathepsin B [4]) is reported as 7.5 ± 0.1 µM and the EC50 ([9]; against the studied lines) is reported as 120 to 200 µM. It also gave an EC50 [11] of 120 ± 3 µM and an EC50 [13] of 186 ± 12 µM.
In the case of `CCCCCCCC/C=C\CCCCCCCCCCCCOP(=O)([O-])OCC[N+](C)(C)C` [erufosine], the EC50 [15] is listed as roughly 60 µM.
